ChEMBL document CHEMBL1201862, “PubChem BioAssay data set” (2004)
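Five compound concentrations were applied to cells in 96-well plates for 48 hours; endpoints were derived by simple linear interpolation of the resulting dose-response curve. At the GI50, growth is halved.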 Active and inactive are the calls of the source. Rule as the data show it: active = GI50 up to about 1.1 µM and inactive = higher.

Experiments:
Experiment in all cases: NCI tumour cell line growth inhibition, 48 h
HOP-92 = test system: HOP-92
DU-145 = test system: DU-145
SR = test system: SR
NCI-H226 = test system: NCI-H226
HL-60 = test system: HL-60
786-0 = test system: 786-0
A498 = test system: A498
K562 = test system: K562
HOP-62 = test system: HOP-62
OVCAR-3 = test system: OVCAR-3
MDA-MB-231 = test system: MDA-MB-231
KM12 = test system: KM12
RXF 393 = test system: RXF 393
M14 = test system: M14
OVCAR-8 = test system: OVCAR-8
SK-OV-3 = test system: SK-OV-3
TK-10 = test system: TK-10
UACC-62 = test system: UACC-62
SF-539 = test system: SF-539
SF-295 = test system: SF-295
BT-549 = test system: BT-549
COLO 205 = test system: COLO 205
OVCAR-5 = test system: OVCAR-5
CAKI-1 = test system: CAKI-1
SNB-75 = test system: SNB-75
U-251 = test system: U-251
SW-620 = test system: SW-620
MDA-N = test system: MDA-N
SK-MEL-28 = test system: SK-MEL-28
MDA-MB-435 = test system: MDA-MB-435
PC-3 = test system: PC-3
SNB-19 = test system: SNB-19
LOX IMVI = test system: LOX IMVI
IGROV-1 = test system: IGROV-1
NCI-H460 = test system: NCI-H460
MCF7 = test system: MCF7
UO-31 = test system: UO-31
ACHN = test system: ACHN
SN12C = test system: SN12C
A549 = test system: A549
NCI-H23 = test system: NCI-H23
SK-MEL-2 = test system: SK-MEL-2
HCT-116 = test system: HCT-116
EKVX = test system: EKVX
SK-MEL-5 = test system: SK-MEL-5
HCT-15 = test system: HCT-15
UACC-257 = test system: UACC-257
SF-268 = test system: SF-268
RPMI-8226 = test system: RPMI-8226
NCI-H522 = test system: NCI-H522
NCI/ADR-RES = test system: NCI/ADR-RES
HCC 2998 = test system: HCC 2998
T47D = test system: T47D
HT-29 = test system: HT-29
MOLT-4 = test system: MOLT-4
Hs-578T = test system: Hs-578T
CCRF-CEM = test system: CCRF-CEM
OVCAR-4 = test system: OVCAR-4
Malme-3M = test system: Malme-3M

For `O=c1c(C(c2cccnc2)c2c(O)oc3cc(O)ccc3c2=O)c(O)oc2cc(O)ccc12`, the GI50 (HOP-92) was > 100 µM (inactive), the GI50 (DU-145) was > 100 µM (inactive) and the GI50 (SR) was > 100 µM (inactive). For the same compound, the GI50 (NCI-H226) was > 100 µM (inactive), the GI50 (HL-60) was > 100 µM (inactive) and the GI50 (786-0) was > 100 µM (inactive). For the same compound, the GI50 (A498) was > 100 µM (inactive), the GI50 (K562) was > 100 µM (inactive) and the GI50 (HOP-62) was > 100 µM (inactive). The GI50 (OVCAR-3) was > 100 µM (inactive), the GI50 (MDA-MB-231) was > 100 µM (inactive) and the GI50 (KM12) was > 100 µM (inactive). The GI50 (RXF 393) was > 100 µM (inactive), the GI50 (M14) was > 100 µM (inactive) and the GI50 (OVCAR-8) was > 100 µM (inactive). For the same compound, the GI50 (SK-OV-3) was > 100 µM (inactive), the GI50 (TK-10) was > 100 µM (inactive) and the GI50 (UACC-62) was > 100 µM (inactive). For the same compound, the GI50 (SF-539) was > 100 µM (inactive), the GI50 (SF-295) was > 100 µM (inactive) and the GI50 (BT-549) was > 100 µM (inactive). The GI50 (COLO 205) was > 100 µM (inactive), the GI50 (OVCAR-5) was > 100 µM (inactive) and the GI50 (CAKI-1) was > 100 µM (inactive). For the same compound, the GI50 (SNB-75) was > 100 µM (inactive), the GI50 (U-251) was > 100 µM (inactive) and the GI50 (SW-620) was > 100 µM (inactive). For the same compound, the GI50 (MDA-N) was > 100 µM (inactive), the GI50 (SK-MEL-28) was > 100 µM (inactive) and the GI50 (MDA-MB-435) was > 100 µM (inactive). The GI50 (PC-3) was > 100 µM (inactive), the GI50 (SNB-19) was > 100 µM (inactive) and the GI50 (LOX IMVI) was > 100 µM (inactive). For the same compound, the GI50 (IGROV-1) was > 100 µM (inactive), the GI50 (NCI-H460) was > 100 µM (inactive) and the GI50 (MCF7) was > 100 µM (inactive). For the same compound, the GI50 (UO-31) was > 100 µM (inactive), the GI50 (ACHN) was > 100 µM (inactive) and the GI50 (SN12C) was > 100 µM (inactive). The GI50 (A549) was > 100 µM (inactive), the GI50 (NCI-H23) was > 100 µM (inactive) and the GI50 (SK-MEL-2) was > 100 µM (inactive). For the same compound, the GI50 (HCT-116) was > 100 µM (inactive), the GI50 (EKVX) was > 100 µM (inactive) and the GI50 (SK-MEL-5) was > 100 µM (inactive). The GI50 (HCT-15) was > 100 µM, the GI50 (UACC-257) was > 100 µM (inactive) and the GI50 (SF-268) was > 100 µM (inactive). For the same compound, the GI50 (RPMI-8226) was > 100 µM (inactive), the GI50 (NCI-H522) was > 100 µM (inactive) and the GI50 (NCI/ADR-RES) was > 100 µM (inactive). The GI50 (HCC 2998) was > 100 µM (inactive), the GI50 (T47D) was > 100 µM (inactive) and the GI50 (HT-29) was > 100 µM (inactive). For the same compound, the GI50 (MOLT-4) was > 100 µM (inactive) and the GI50 (Hs-578T) was > 100 µM (inactive).
For `CCC(c1nc2ccccc2c(=O)n1NC(=O)C(C)(C)C)C1(O)CCCCC1` (stereo not drawn), the GI50 (HOP-92) was > 100 µM (inactive), the GI50 (DU-145) was > 100 µM (inactive) and the GI50 (SR) was > 100 µM (inactive). For the same compound, the GI50 (NCI-H226) was > 100 µM (inactive), the GI50 (HL-60) was > 100 µM (inactive) and the GI50 (786-0) was > 100 µM (inactive). The GI50 (CCRF-CEM) was 99.5 µM (inactive), the GI50 (A498) was > 100 µM (inactive) and the GI50 (K562) was > 100 µM (inactive). The GI50 (HOP-62) was > 100 µM (inactive), the GI50 (OVCAR-3) was > 100 µM (inactive) and the GI50 (MDA-MB-231) was > 100 µM (inactive). The GI50 (KM12) was > 100 µM (inactive), the GI50 (RXF 393) was > 100 µM (inactive) and the GI50 (M14) was > 100 µM (inactive). For the same compound, the GI50 (OVCAR-8) was > 100 µM (inactive), the GI50 (SK-OV-3) was > 100 µM (inactive) and the GI50 (UACC-62) was > 100 µM (inactive). The GI50 (SF-539) was > 100 µM (inactive), the GI50 (SF-295) was > 100 µM (inactive) and the GI50 (BT-549) was > 100 µM (inactive). For the same compound, the GI50 (COLO 205) was > 100 µM (inactive), the GI50 (OVCAR-5) was > 100 µM (inactive) and the GI50 (CAKI-1) was > 100 µM (inactive). The GI50 (SNB-75) was > 100 µM (inactive), the GI50 (U-251) was > 100 µM (inactive) and the GI50 (SW-620) was > 100 µM (inactive). The GI50 (MDA-N) was > 100 µM (inactive), the GI50 (SK-MEL-28) was > 100 µM (inactive) and the GI50 (MDA-MB-435) was > 100 µM (inactive). For the same compound, the GI50 (PC-3) was > 100 µM (inactive), the GI50 (SNB-19) was > 100 µM (inactive) and the GI50 (IGROV-1) was > 100 µM (inactive). For the same compound, the GI50 (NCI-H460) was > 100 µM (inactive), the GI50 (MCF7) was > 100 µM (inactive) and the GI50 (UO-31) was > 100 µM (inactive). For the same compound, the GI50 (ACHN) was > 100 µM (inactive), the GI50 (SN12C) was > 100 µM (inactive) and the GI50 (A549) was > 100 µM (inactive). The GI50 (NCI-H23) was > 100 µM (inactive), the GI50 (SK-MEL-2) was > 100 µM (inactive) and the GI50 (HCT-116) was > 100 µM (inactive). For the same compound, the GI50 (EKVX) was > 100 µM (inactive), the GI50 (OVCAR-4) was > 100 µM (inactive) and the GI50 (Malme-3M) was > 100 µM (inactive). For the same compound, the GI50 (SK-MEL-5) was > 100 µM (inactive), the GI50 (HCT-15) was > 100 µM and the GI50 (UACC-257) was > 100 µM (inactive). The GI50 (SF-268) was > 100 µM (inactive), the GI50 (RPMI-8226) was > 100 µM (inactive) and the GI50 (NCI-H522) was 67.8 µM (inactive). For the same compound, the GI50 (NCI/ADR-RES) was > 100 µM (inactive), the GI50 (T47D) was > 100 µM (inactive) and the GI50 (HT-29) was > 100 µM (inactive). For the same compound, the GI50 (MOLT-4) was 80.4 µM (inactive) and the GI50 (Hs-578T) was > 100 µM (inactive).
With `Cc1c(OCc2cccc3ccccc23)ccc2c(O)cc(=S)oc12` the GI50 (HOP-92) was 27.1 µM (inactive), the GI50 (DU-145) was 36.2 µM (inactive) and the GI50 (SR) was 28.7 µM (inactive). The GI50 (NCI-H226) was 39.5 µM (inactive), the GI50 (HL-60) was 19.4 µM (inactive) and the GI50 (786-0) was 41.8 µM (inactive). For the same compound, the GI50 (CCRF-CEM) was 22.1 µM (inactive), the GI50 (A498) was 82.2 µM (inactive) and the GI50 (K562) was 36.1 µM (inactive). The GI50 (HOP-62) was 37.3 µM (inactive), the GI50 (OVCAR-3) was 22.9 µM (inactive) and the GI50 (MDA-MB-231) was 46.5 µM (inactive). For the same compound, the GI50 (KM12) was 29.2 µM (inactive), the GI50 (RXF 393) was 57.9 µM (inactive) and the GI50 (M14) was 34.8 µM (inactive). For the same compound, the GI50 (OVCAR-8) was 60.4 µM (inactive), the GI50 (TK-10) was 56.5 µM (inactive) and the GI50 (UACC-62) was 23.1 µM (inactive). The GI50 (SF-539) was 26.9 µM (inactive), the GI50 (SF-295) was 29.8 µM (inactive) and the GI50 (BT-549) was 30.9 µM (inactive). The GI50 (COLO 205) was 31.4 µM (inactive), the GI50 (OVCAR-5) was 54.1 µM (inactive) and the GI50 (CAKI-1) was 43 µM (inactive). For the same compound, the GI50 (SNB-75) was 40.9 µM (inactive), the GI50 (U-251) was 35.6 µM (inactive) and the GI50 (SW-620) was 39.2 µM (inactive). The GI50 (MDA-N) was 43.4 µM (inactive), the GI50 (SK-MEL-28) was 43.6 µM (inactive) and the GI50 (MDA-MB-435) was 30.1 µM (inactive). The GI50 (PC-3) was 35.2 µM (inactive), the GI50 (SNB-19) was 37.6 µM (inactive) and the GI50 (LOX IMVI) was 22 µM (inactive). For the same compound, the GI50 (IGROV-1) was 42.6 µM (inactive), the GI50 (NCI-H460) was 31.8 µM (inactive) and the GI50 (MCF7) was 45.7 µM (inactive). The GI50 (UO-31) was 33.6 µM (inactive), the GI50 (ACHN) was 34.2 µM (inactive) and the GI50 (SN12C) was 48.4 µM (inactive). The GI50 (A549) was 55.7 µM (inactive), the GI50 (NCI-H23) was 25.7 µM (inactive) and the GI50 (SK-MEL-2) was 19.4 µM (inactive). For the same compound, the GI50 (HCT-116) was 26.7 µM (inactive), the GI50 (EKVX) was 44.1 µM (inactive) and the GI50 (OVCAR-4) was 29 µM (inactive). The GI50 (SK-MEL-5) was 18.5 µM (inactive), the GI50 (HCT-15) was 35.3 µM and the GI50 (UACC-257) was 46.3 µM (inactive). The GI50 (SF-268) was 34.1 µM (inactive), the GI50 (NCI-H522) was 23.4 µM (inactive) and the GI50 (NCI/ADR-RES) was 38.2 µM (inactive). The GI50 (HCC 2998) was 31.4 µM (inactive), the GI50 (T47D) was 35.2 µM (inactive) and the GI50 (HT-29) was 38.2 µM (inactive). The GI50 (MOLT-4) was 32 µM (inactive) and the GI50 (Hs-578T) was 34.8 µM (inactive).
